Ten molecules from US20250152564A1, “PROPYLENE KETONE-CONTAINING BIOINHIBITOR, PREPARATION METHOD THEREFOR, AND USE THEREOF” (SHANGHAI HANSOH BIOMEDICAL CO., LTD., priority 2022, published 2025) can be followed below.

Molecules are shown by their SMILES.

The test system of one test is NCI-H716 cells. Put plainly: CellTiter-Glo cell proliferation inhibition, NCI-H716. The following applies: Homo sapiens, 72 h, read-out: NCI-H716 cell proliferation inhibition rate IC50. In kind it is cell-based. On the procedure: To evaluate inhibitory effects of the compounds on the proliferation of NCI-H716, SNU-16 and BaF3-FGFR2-BICC1 V564F cells by cell proliferation inhibition experiments.
CellTiter-Glo method was used to detect inhibitory effects of the compounds on the proliferation of NCI-H716, SNU-16 and BaF3 FGFR2-BICC1 V564F cells. The highest detection concentration of the compounds was 1000 nM, which was diluted in 3 folds, with a total of 9 concentrations (1000 nM to 0.15 nM). After the cells were plated at an appropriate density, compounds were added the next day and incubated for 72 h before detection using the […] detection kit.
1) Inhibition rate (%): Inhibition rate %=[(mean value in positive control well−value in sample well)/(mean value in positive control well−mean value in negative control well)]×100, wherein the positive control well was a reaction well without a compound […], and the negative control well was a reaction wells without an enzyme.
(§1) 2) Curve fitting: Log(inhibitor) vs. response—Variable slope (four parameters) in GraphPad Prism 6 was used for fitting equation analysis of the compound concentration and the corresponding inhibition rate, and the curve was fitted to obtain the IC50 values of the compounds.

Another test deals with FGFR2 (Homo sapiens (Human), UniProt P21802). Put plainly: TR-FRET kinase inhibition assay, FGFR2. The test is classed as biochemical. The settings on record: ATP Km concentration (30 μM). In a few lines: (§2)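 Kinase-domain fragments in 50 mM HEPES pH 7.5 with 10 mM MgCl2, ATP at Km plus peptide substrate; 60 min reaction at room temperature, then EDTA/Eu-anti-phosphotyrosine (PT66) detection for 60 min (30 min for V564F). 11-point 3-fold dilutions from 1000 nM; IC50 from four-parameter fit of 665/620 nm ratio inhibition.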
Chain of FGFR2 (P21802 481-770): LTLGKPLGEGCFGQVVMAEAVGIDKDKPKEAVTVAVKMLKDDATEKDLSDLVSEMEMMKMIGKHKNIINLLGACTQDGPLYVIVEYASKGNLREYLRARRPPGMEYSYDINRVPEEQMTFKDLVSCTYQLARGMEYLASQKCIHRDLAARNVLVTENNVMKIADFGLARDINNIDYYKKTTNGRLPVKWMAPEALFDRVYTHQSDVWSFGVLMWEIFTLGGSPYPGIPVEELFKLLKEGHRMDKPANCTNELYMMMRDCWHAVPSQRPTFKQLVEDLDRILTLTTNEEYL
A general note: Time-resolved FRET reads energy transfer from a long-lived donor to a nearby acceptor.

Another test has as its target FGFR2 V564F (Homo sapiens (Human), UniProt P21802, V564F). Put plainly: TR-FRET kinase inhibition assay, FGFR2 V564F. The test is classed as biochemical. The settings on record: ATP Km concentration (20 μM). In a few lines:
as §2

In test [1] the test system is BaF3 FGFR2-BICC1 V564F cells. Put plainly: CellTiter-Glo cell proliferation inhibition, BaF3 FGFR2-BICC1 V564F. In kind it is cell-based. The settings on record: Mus musculus, 72 h, read-out: BaF3 FGFR2-BICC1 V564F inhibitory activity IC50. In a few lines: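 Cells plated, compound added next day as 9-point 3-fold series from 1000 nM to 0.15 nM, incubated 72 h. Viability by CellTiter-Glo luminescence; IC50 from four-parameter variable-slope fit of percent inhibition.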
(In general: Cellular ATP, detected with luciferase, serves as a proxy for viable cell number.)

The next test addresses FGFR1 (Homo sapiens (Human), UniProt P11362). Put plainly: TR-FRET kinase inhibition assay, FGFR1. In kind it is biochemical. The following applies: ATP Km concentration (30 μM). As for the experimental part:
To measure the IC50 values of the compounds against FGFR1, FGFR2, FGFR3, FGFR4, and FGFR2 V564F at ATP Km concentrations by TR-FRET method.
TR-FRET (time-resolved fluorescence resonance energy transfer) method was used to detect the inhibitory activity of the compounds on FGFR1, FGFR2, FGFR3, FGFR4, and FGFR2 V564F kinase region fragments. The highest detection concentration of the compounds in 5 kinase experiments was 1000 nM, which was diluted in 3 folds, with a total of 11 concentrations (1000 nM to 0.017 nM). A kinase buffer (50 mM HEPES pH 7.5, 1 mM EGTA, 10 mM MgCl2, 2 mM DTT, and 0.01% Tween-20) was used to prepare 4× enzyme solution, 4× compound solutions diluted in gradient, and a 2×ATP/Peptide substrate solution. To a 384-well plate, 2.5 μL of enzyme solution and 2.5 μL of diluted […] compound solution were added, and 5 μL of 2×ATP/Peptide substrate solution was then added. After reacting at room temperature for 60 minutes for FGFR1, FGFR2, FGFR3, and FGFR2 V564F kinases, and 120 minutes for FGFR4 kinase, 10 μL of a 2× termination and detection mixed liquid prepared with 1×LANCE detection buffer with an EDTA concentration of 20 mM and a Europium-anti-phosphotyrosine (PT66) concentration of 2 nM was added to each well of the plate. After reacting at room temperature for 60 minutes for FGFR1, FGFR2, FGFR3, and FGFR4, and 30 minutes for FGFR2 V564F, the fluorescence signal value in each well of the plate was measured by a microplate reader.
1) Inhibition rate (%): Calculation was performed on the raw data (665 nm/620 nm reading ratio) according to the following formula to obtain the inhibition rate. Inhibition rate %=[(mean value in positive control well−value in sample well)/(mean value in positive control well−mean value in negative control well)]×100, wherein the positive control well was a reaction well without a compound […], and the negative control well was a reaction wells without an enzyme.
as §1

Chain of FGFR1 (P11362 478-767): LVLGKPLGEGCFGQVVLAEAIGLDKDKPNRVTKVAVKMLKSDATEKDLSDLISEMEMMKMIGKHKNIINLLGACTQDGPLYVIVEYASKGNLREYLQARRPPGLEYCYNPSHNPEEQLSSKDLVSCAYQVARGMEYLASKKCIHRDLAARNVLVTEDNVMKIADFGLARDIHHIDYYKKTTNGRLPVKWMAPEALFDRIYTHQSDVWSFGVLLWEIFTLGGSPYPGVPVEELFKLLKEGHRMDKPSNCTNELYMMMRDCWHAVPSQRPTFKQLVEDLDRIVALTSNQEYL
Chain of FGFR2 V564F (P21802 481-770 V564F): as the sequence (P21802 481-770) above, with V84F counted along it

As for `C=CC(=O)N1CC[C@H](n2nc(C#Cc3cc4ncn(C5CC5)c4cc3F)c3c(N)ncc(C(=O)C4CC4)c32)C1` [Example 49, (S)-1-(3-(4-amino-7-(cyclopropanecarbonyl)-3-((1-cyclopropyl-6-fluoro-1H-benzo[d]imidazol-5-yl)ethynyl)-1H-pyrazolo[4,3-c]pyridin-1-yl)pyrrolidin-1-yl)prop-2-en-1-one], the IC50 with NCI-H716 cells is 1.92 nM; against FGFR2, 1.3 nM; on FGFR2 V564F, 1 nM; in test [1] it was 0.4 nM; at FGFR1 it was 3.9 nM.
On to `C=CC(=O)N1CC[C@H](n2nc(C#Cc3ccc4cn(C)nc4c3)c3c(N)ncc(C(=O)C4CC4)c32)C1` [Example 84, (S)-1-(3-(4-amino-7-(cyclopropanecarbonyl)-3-((2-methyl-2H-indazol-6-yl)ethynyl)-1H-pyrazolo[4,3-c]pyridin-1-yl)pyrrolidin-1-yl)prop-2-en-1-one], for which the IC50 with NCI-H716 cells came out at 1.04 nM; against FGFR2, 0.5 nM; on FGFR2 V564F, 0.3 nM; in test [1], 0.1 nM; on FGFR1 it was 1 nM.
With `C=CC(=O)N1CC[C@H](n2nc(C#Cc3cc4ncn(C5CC5)c4cc3F)c3c(N)ncc(C(C)=O)c32)C1` [Example 7, (S)-1-(3-(7-acetyl-4-amino-3-((1-cyclopropyl-6-fluoro-1H-benzo[d]imidazol-5-yl)ethynyl)-1H-pyrazolo[4,3-c]pyridin-1-yl)pyrrolidin-1-yl)prop-2-en-1-one], the IC50 with NCI-H716 cells was determined as 1.26 nM; at FGFR2 it was 1 nM; at FGFR2 V564F it was 0.3 nM; in test [1] it was 0.9 nM; against FGFR1, 1.3 nM.
`C=CC(=O)N1CC[C@H](n2nc(C#Cc3cc4ncn(CC)c4cc3F)c3c(N)ncc(C(C)=O)c32)C1` [Example 24, (S)-1-(3-(7-acetyl-4-amino-3-((1-ethyl-6-fluoro-1H-benzo[d]imidazol-5-yl)ethynyl)-1H-pyrazolo[4,3-c]pyridin-1-yl)pyrrolidin-1-yl)prop-2-en-1-one]: the IC50 in the test on NCI-H716 cells stood at 2.09 nM; at FGFR2 it was 0.7 nM; at FGFR2 V564F, 0.4 nM; in test [1], 0.8 nM; at FGFR1, 3.6 nM.
Turning to `C=CC(=O)N1CC[C@H](n2nc(C#Cc3ccc4cn(C)nc4c3)c3c(N)ncc(C(=O)CC)c32)C1` [Example 83, (S)-1-(3-(4-amino-3-((2-methyl-2H-indazol-6-yl)alkynyl)-7-propionyl-1H-pyrazolo[4,3-c]pyridin-1-yl)pyrrolidine-1-methyl)prop-2-en-1-one], the IC50 in the test on NCI-H716 cells came to 0.82 nM; on FGFR2 it was 0.3 nM; on FGFR2 V564F, 0.3 nM; in test [1], 0.7 nM; against FGFR1, 1.7 nM.
On to `C=CC(=O)N1CC[C@H](n2nc(C#Cc3cc4ncn(CC)c4cc3F)c3c(N)ncc(C(=O)CC)c32)C1` [Example 60, (S)-1-(3-(4-amino-3-((1-ethyl-6-fluoro-1H-benzo[d]imidazol-5-yl)ethynyl)-7-propionyl-1H-pyrazolo[4,3-c]pyridin-1-yl)pyrrolidin-1-yl)prop-2-en-1-one], for which the IC50 with NCI-H716 cells was determined as 2.19 nM; against FGFR2, 0.9 nM; at FGFR2 V564F, 0.4 nM; in test [1] it was 1.7 nM; on FGFR1 it was 4.7 nM.
For the molecule `C=CC(=O)N1CC[C@H](n2nc(C#Cc3ccc4c(c3)ncn4C)c3c(N)ncc(C(=O)C4CC4)c32)C1` [Example 65, (S)-1-(3-(4-amino-7-(cyclopropanecarbonyl)-3-((1-methyl-1H-benzo[d]imidazol-5-yl)ethynyl)-1H-pyrazolo[4,3-c]pyridin-1-yl)pyrrolidin-1-yl)prop-2-en-1-one], the IC50 in the test with NCI-H716 cells worked out at 1.5 nM; against FGFR2, 0.7 nM; on FGFR2 V564F it was 0.5 nM; in test [1], 1.4 nM; on FGFR1, 2.8 nM.
On to `C=CC(=O)N1CC[C@H](n2nc(C#Cc3ccc4csnc4c3)c3c(N)ncc(C(=O)C4CC4)c32)C1` [Example 91, (S)-1-(3-(4-amino-3-(benzo[c]isothiazole-6-ethynylene)-7-(cyclopropanecarbonyl)-1H-pyrazolo[4,3-c]pyridin-1-yl)pyrrolidine-1-methyl)prop-2-en-1-one], for which the IC50 in the test on NCI-H716 cells was found to be 0.97 nM; against FGFR2, 1 nM; on FGFR2 V564F, 1.1 nM; in test [1], 0.8 nM; on FGFR1, 3.9 nM.
In the case of `C=CC(=O)N1CC[C@H](n2nc(C#Cc3ccc4csnc4c3)c3c(N)ncc(C(C)=O)c32)C1` [Example 89, (S)-1-(3-(7-acetyl-4-amino-3-(benzo[c]isothiazole-6-ethynylene)-1H-pyrazolo[4,3-c]pyridin-1-yl)pyrrolidine-1-methyl)prop-2-en-1-one], the IC50 in the test with NCI-H716 cells is 0.94 nM; on FGFR2, 0.4 nM; against FGFR2 V564F, 0.7 nM; in test [1] it was 1.6 nM; against FGFR1 it was 2.7 nM.
As for `C=CC(=O)N1CC[C@H](n2nc(C#Cc3ccc4c(c3)ncn4CC)c3c(N)ncc(C(=O)C4CC4)c32)C1` [Example 58, (S)-1-(3-(4-amino-7-(cyclopropanecarbonyl)-3-((1-ethyl-1H-benzo[d]imidazol-5-yl)ethynyl)-1H-pyrazolo[4,3-c]pyridin-1-yl)pyrrolidin-1-yl)prop-2-en-1-one], the IC50 was determined as 1.94 nM in the test with NCI-H716 cells; 1.2 nM at FGFR2; 0.5 nM against FGFR2 V564F; 0.4 nM in test [1]; 3 nM against FGFR1.
